Consider 24 molecules from patent US20220062243A1, “P14-Kinase Inhibitors with Anti-Cancer Activity” (The Board of Trustees of the Leland Stanford Junior …, priority 2019, published 2022).

PI4K-IIIβ, sequence (Q9UBF8 whole entry): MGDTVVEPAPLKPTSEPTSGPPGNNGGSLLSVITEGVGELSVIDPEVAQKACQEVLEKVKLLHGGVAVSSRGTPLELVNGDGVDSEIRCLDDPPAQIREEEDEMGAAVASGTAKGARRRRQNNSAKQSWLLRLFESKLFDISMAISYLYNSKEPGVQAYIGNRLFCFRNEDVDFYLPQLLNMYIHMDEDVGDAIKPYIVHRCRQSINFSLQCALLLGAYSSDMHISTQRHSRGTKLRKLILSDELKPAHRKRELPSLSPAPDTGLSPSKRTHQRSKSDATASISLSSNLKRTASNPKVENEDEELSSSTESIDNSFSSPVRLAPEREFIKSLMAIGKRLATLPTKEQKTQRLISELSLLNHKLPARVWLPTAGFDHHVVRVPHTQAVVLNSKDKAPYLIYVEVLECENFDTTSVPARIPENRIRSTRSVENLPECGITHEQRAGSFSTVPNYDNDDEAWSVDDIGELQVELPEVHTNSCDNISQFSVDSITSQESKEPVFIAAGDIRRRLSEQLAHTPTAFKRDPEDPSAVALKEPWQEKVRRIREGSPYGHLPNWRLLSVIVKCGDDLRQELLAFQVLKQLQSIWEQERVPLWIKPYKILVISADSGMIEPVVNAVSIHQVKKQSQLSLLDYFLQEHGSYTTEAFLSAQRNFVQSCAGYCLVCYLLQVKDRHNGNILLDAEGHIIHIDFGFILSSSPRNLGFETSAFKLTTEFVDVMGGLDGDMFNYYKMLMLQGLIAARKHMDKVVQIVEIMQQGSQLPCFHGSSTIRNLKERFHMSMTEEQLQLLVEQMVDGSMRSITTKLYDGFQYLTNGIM

The target in one assay is PI4K-IIIβ (Homo sapiens, UniProt Q9UBF8). Kind of assay: PI-kinase assay (membrane capture assay for lipid kinase activity), PI4KIIIβ. It counts as biochemical. The conditions noted are these: read-out: PI4KIIIβ kinase activity (IC50 class). Here is the method:
PI4-kinase inhibition can be determined by a kinase activity assay, e.g., by an assay that determines the level of incorporation of radiolabeled phosphate from [γ-^32P]-ATP into a substrate molecule after treatment with a subject compound, relative to a control, by measuring the beta-particle emission rate using a scintillation counter or phosphorimaging.
PI-kinase assay: Compounds are tested in C.1.1. PI kinase assays as described by Shokat et al., “A membrane capture assay for lipid kinase activity.” Nat. Protoc. […] Selected compounds of Table 1 and 2 were prepared and tested for inhibition activity in a variety of kinase assays.
As for `COc1ccc(-c2sc(N[C@H](C)CC3CCCCC3)nc2C)cc1S(=O)(=O)NC1CCNCC1` [Compound S-145, 5-[2-[[(1R)-2-cyclohexyl-1-methyl-ethyl]amino]-4-methyl-thiazol-5-yl]-2-methoxy-N-(4-piperidyl)benzenesulfonamide], the half-maximal inhibitory concentration (IC50) (commonly the concentration needed to halve the response being measured) is less than 0.1 µM.
Take `COc1ncc(-c2sc(NC(=O)CC3CCOCC3)nc2C)cc1S(=O)(=O)Nc1ccc(F)cc1F` [Compound S-260]: the half-maximal inhibitory concentration (IC50) is less than 0.1 µM.
The same measure, in the same setting: under `COc1ccc(-c2sc(NC(=O)CC3CCOCC3)nc2C)cc1S(=O)(=O)Nc1ccc(F)cc1` [Compound S-170, N-[5-[3-[(4-fluorophenyl)sulfamoyl]-4-methoxy-phenyl]-4-methyl-thiazol-2-yl]-2-tetrahydropyran-4-yl-acetamide] stands less than 0.1 µM; under `COc1ccc(-c2sc(NC(=O)C3CCCC3)nc2C)cc1S(=O)(=O)Nc1ccc(CO)cc1` [Compound S-41, N-[5-[3-[[4-(hydroxymethyl)phenyl]sulfamoyl]-4-methoxy-phenyl]-4-methyl-thiazol-2-yl]cyclopentanecarboxamide], less than 0.1 µM.
As for `COc1ccc(-c2sc(NC(C)(C)C)nc2C)cc1S(=O)(=O)NC1CCCNC1` (stereo not drawn) [Compound S-220, 5-[2-(tert-butylamino)-4-methyl-thiazol-5-yl]-2-methoxy-N-(3-piperidyl)benzenesulfonamide], the IC50 was less than 0.1 µM.
As to `COc1ccc(-c2sc(NCC3CCCCC3)nc2C)cc1S(=O)(=O)NC1CCNCC1` [Compound S-123, 5-[2-(cyclohexylmethylamino)-4-methyl-thiazol-5-yl]-2-methoxy-N-(4-piperidyl)benzenesulfonamide], the IC50 was less than 0.1 µM.
The same measure, in the same setting: next, `COc1ccc(-c2sc(NCC3CCCCC3)nc2C)cc1S(=O)(=O)NC1CCCC(O)C1` (stereo not drawn) [Compound S-199, 5-[2-(cyclohexylmethylamino)-4-methyl-thiazol-5-yl]-N-(3-hydroxycyclohexyl)-2-methoxy-benzenesulfonamide]: less than 0.1 µM.
Still for that read-out and setting: under `COc1ccc(-c2sc(NCC3CCCCC3)nc2C)cc1S(=O)(=O)NC1CCN(C2CCCCC2)CC1` [Compound S-136, 5-[2-(cyclohexylmethylamino)-4-methyl-thiazol-5-yl]-N-(1-cyclohexyl-4-piperidyl)-2-methoxy-benzenesulfonamide] stands less than 0.1 µM; under `COc1ccc(-c2sc(NC(=O)CC3CCOCC3)nc2C)cc1S(=O)(=O)Nc1ccc(O)cc1C` [Compound S-231, N-[5-[3-[(4-hydroxy-2-methyl-phenyl)sulfamoyl]-4-methoxy-phenyl]-4-methyl-thiazol-2-yl]-2-tetrahydropyran-4-yl-acetamide], less than 0.1 µM.
In the case of `COc1ccc(-c2sc(NCC3CCCCC3)nc2C)cc1S(=O)(=O)NC1CCN(C2CCCC2)CC1` [Compound S-133, 5-[2-(cyclohexylmethylamino)-4-methyl-thiazol-5-yl]-N-(1-cyclopentyl-4-piperidyl)-2-methoxy-benzenesulfonamide], the IC50 is less than 0.1 µM.
As for `COc1ccc(-c2sc(NC3CCCCC3)nc2C)cc1S(=O)(=O)N[C@H]1CC[C@@H](O)CC1` [Compound S-167, 5-[2-(cyclohexylamino)-4-methyl-thiazol-5-yl]-N-(4-hydroxycyclohexyl)-2-methoxy-benzenesulfonamide], the 50% inhibitory concentration (IC50) was less than 0.1 µM.
With `COc1ncc(-c2sc(NC(=O)CC3CCOCC3)nc2C)cc1S(=O)(=O)Nc1cccc(O)c1` [Compound S-259], the IC50 is less than 0.1 µM.
In the case of `COc1ccc(-c2sc(N[C@H](C)C3CCCCC3)nc2C)cc1S(=O)(=O)N[C@H]1CCNC1` [Compound S-201, 5-[2-[[(1R)-1-cyclohexylethyl]amino]-4-methyl-thiazol-5-yl]-2-methoxy-N-[(3S)-pyrrolidin-3-yl]benzenesulfonamide], the IC50 is less than 0.1 µM.
As to `Cc1ccc(-c2sc(NC(=O)CC3CCCC3)nc2C)cc1S(=O)(=O)NC1CCCNC1` (stereo not drawn) [Compound S-189, 2-cyclopentyl-N-[4-methyl-5-[4-methyl-3-(3-piperidylsulfamoyl)phenyl]thiazol-2-yl]acetamide], the IC50 is less than 0.1 µM.
For the molecule `COc1ccc(-c2sc(NC(C)(C)C)nc2C)cc1S(=O)(=O)NC1CCNCC1` [Compound S-219, 5-[2-(tert-butylamino)-4-methyl-thiazol-5-yl]-2-methoxy-N-(4-piperidyl)benzenesulfonamide], the 50% inhibitory concentration (IC50) was less than 0.1 µM.
With `COc1ccc(-c2sc(NCC(C)C)nc2C)cc1S(=O)(=O)N[C@H]1CC[C@@H](O)CC1` [Compound S-222, N-(4-hydroxycyclohexyl)-5-[2-(isobutylamino)-4-methyl-thiazol-5-yl]-2-methoxy-benzenesulfonamide], the IC50 was less than 0.1 µM.
On the same count and under the same terms, next, `COc1ccc(-c2sc(NC(=O)Cc3ccccc3)nc2C)cc1S(=O)(=O)Nc1ccc(O)cc1` [Compound S-49, N-[5-[3-[(4-hydroxyphenyl)sulfamoyl]-4-methoxy-phenyl]-4-methyl-thiazol-2-yl]-2-phenyl-acetamide]: less than 0.1 µM; `COc1ccc(-c2sc(N[C@@H](C)C3CCCCC3)nc2C)cc1S(=O)(=O)N[C@H]1CC[C@@H](O)CC1` [Compound S-206, 5-[2-[[(1S)-1-cyclohexylethyl]amino]-4-methyl-thiazol-5-yl]-N-(4-hydroxycyclohexyl)-2-methoxy-benzenesulfonamide]: 1 to 10 µM.
As to `COc1ccc(-c2sc(NC(=O)CC3CCCC3)nc2C)cc1S(=O)(=O)NC1CCCNC1` (stereo not drawn) [Compound S-173, 2-cyclopentyl-N-[5-[4-methoxy-3-(3piperidylsulfamoyl)phenyl]-4-methyl-thiazol-2-yl]acetamide;2,2,2-trifluoroacetic acid], the IC50 is less than 0.1 µM.
Same read-out and setting: next, `COc1ccc(-c2sc(NC(=O)CC3CCCC3)nc2C)cc1S(=O)(=O)N1CC[C@@H](O)C1` [Compound S-153, 2-cyclopentyl-N-[5-[3-[(3R)-3-hydroxypyrrolidin-1-yl]sulfonyl-4-methoxy-phenyl]-4-methyl-thiazol-2-yl]acetamide]: less than 0.1 µM.
In the case of `COc1ccc(-c2sc(NC(C)C)nc2C)cc1S(=O)(=O)N[C@H]1CC[C@H](O)CC1` [Compound S-215, N-(4-hydroxycyclohexyl)-5-[2-(isopropylamino)-4-methyl-thiazol-5-yl]-2-methoxy-benzenesulfonamide], the half-maximal inhibitory concentration (IC50) is less than 0.1 µM.
As to `COc1ccc(-c2sc(N[C@H](C)C3CCCCC3)nc2C)cc1S(=O)(=O)N[C@@H]1CCNC1` [Compound S-197, 5-[2-[[(1R)-1-cyclohexylethyl]amino]-4-methyl-thiazol-5-yl]-2-methoxy-N-[(3R)-pyrrolidin-3-yl]benzenesulfonamide], the IC50 is less than 0.1 µM.
Still for that read-out and setting: next, `COc1ccc(-c2sc(N[C@H](C)C3CCCCC3)nc2C)cc1S(=O)(=O)N[C@H]1CC[C@@H](O)CC1` [Compound S-198, 5-[2-[[(1R)-1-cyclohexylethyl]amino]-4-methyl-thiazol-5-yl]-N-(4-hydroxycyclohexyl)-2-methoxy-benzenesulfonamide]: 0.1 to 1 µM.

The target in another assay is PI4KIIIα (Homo sapiens, UniProt P42356).
PI4KIIIα, sequence (P42356 whole entry): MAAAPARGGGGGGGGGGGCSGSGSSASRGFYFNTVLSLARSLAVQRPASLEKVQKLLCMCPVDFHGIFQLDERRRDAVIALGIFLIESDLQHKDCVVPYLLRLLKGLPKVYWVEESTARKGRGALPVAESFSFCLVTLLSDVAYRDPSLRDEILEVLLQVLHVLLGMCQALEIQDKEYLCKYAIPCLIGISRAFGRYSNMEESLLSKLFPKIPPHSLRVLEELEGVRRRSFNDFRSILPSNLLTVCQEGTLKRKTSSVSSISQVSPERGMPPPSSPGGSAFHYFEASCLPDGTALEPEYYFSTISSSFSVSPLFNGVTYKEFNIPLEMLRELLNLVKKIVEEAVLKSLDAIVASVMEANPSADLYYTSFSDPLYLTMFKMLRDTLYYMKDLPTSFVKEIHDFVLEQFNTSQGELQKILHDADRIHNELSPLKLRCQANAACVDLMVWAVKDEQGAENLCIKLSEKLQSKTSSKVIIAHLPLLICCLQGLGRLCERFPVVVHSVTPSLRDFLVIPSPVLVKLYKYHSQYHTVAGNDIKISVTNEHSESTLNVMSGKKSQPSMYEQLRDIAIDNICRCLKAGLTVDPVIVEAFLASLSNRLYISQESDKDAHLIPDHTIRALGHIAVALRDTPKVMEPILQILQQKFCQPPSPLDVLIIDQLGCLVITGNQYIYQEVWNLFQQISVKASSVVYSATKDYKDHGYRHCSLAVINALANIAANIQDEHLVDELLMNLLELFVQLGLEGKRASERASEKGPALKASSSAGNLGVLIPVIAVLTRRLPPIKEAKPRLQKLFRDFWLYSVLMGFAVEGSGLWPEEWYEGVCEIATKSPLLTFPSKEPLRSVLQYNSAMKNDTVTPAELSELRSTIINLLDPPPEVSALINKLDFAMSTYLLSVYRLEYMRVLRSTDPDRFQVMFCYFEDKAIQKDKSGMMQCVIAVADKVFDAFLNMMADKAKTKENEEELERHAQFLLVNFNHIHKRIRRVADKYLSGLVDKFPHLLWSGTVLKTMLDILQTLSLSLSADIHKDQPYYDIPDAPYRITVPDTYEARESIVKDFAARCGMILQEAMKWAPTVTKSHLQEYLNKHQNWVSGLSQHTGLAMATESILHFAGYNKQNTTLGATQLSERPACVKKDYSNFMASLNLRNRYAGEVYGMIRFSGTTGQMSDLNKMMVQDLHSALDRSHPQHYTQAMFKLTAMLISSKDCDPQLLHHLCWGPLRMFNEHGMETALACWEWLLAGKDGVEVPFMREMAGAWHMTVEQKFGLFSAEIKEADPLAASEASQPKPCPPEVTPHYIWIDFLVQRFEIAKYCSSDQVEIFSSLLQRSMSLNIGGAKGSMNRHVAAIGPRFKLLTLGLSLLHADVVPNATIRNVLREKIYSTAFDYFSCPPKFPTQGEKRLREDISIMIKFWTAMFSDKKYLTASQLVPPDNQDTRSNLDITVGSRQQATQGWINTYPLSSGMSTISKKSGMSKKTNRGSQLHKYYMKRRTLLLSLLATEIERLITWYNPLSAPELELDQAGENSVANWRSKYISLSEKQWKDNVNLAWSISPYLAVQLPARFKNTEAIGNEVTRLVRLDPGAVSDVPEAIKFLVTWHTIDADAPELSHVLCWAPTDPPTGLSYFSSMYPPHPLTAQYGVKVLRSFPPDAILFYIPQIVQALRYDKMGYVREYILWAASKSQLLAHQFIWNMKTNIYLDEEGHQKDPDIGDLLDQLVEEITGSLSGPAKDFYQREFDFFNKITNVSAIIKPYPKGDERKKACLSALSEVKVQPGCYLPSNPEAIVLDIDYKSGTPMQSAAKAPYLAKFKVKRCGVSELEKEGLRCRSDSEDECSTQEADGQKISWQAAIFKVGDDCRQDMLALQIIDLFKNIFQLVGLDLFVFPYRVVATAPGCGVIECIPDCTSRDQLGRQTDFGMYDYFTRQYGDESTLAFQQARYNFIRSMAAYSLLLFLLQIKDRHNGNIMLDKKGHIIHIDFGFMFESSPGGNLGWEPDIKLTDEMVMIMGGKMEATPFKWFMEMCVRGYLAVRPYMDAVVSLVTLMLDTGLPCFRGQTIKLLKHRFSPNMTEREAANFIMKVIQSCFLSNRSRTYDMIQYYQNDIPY
Assay: not given
The conditions noted are these: weak inhibition; cited from earlier work.
On to `COc1ccc(-c2sc(NC(=O)C(C)(C)C)nc2C)cc1S(=O)(=O)Nc1ccc(O)cc1` [PI4KIIIbeta-IN-10], for which the IC50 was roughly 3 µM.
